# Assay results reported in patent US5089424A, “Method and apparatus for heterogeneous chemiluminescence assay” (Abbott Laboratories, priority 1989, dated 1992).
# Experiments:
# anti-PCP antibody = test: Fluorescence polarization competitive binding assay in solution (TDx), fluorescein-labeled PCP analog; conditions: 0 ng/mL: 198
# [1] = system: Anti-phenylcyclidine antibodies; test: Ion-capture alkaline phosphatase labeled chemiluminescence competitive binding immunoassay for phenylcyclidine in urine; conditions: 0 ng/mL: 3526
# [2] = system: Monoclonal anti-phenylcyclidine antibody; test: Ion-capture acridinium labeled chemiluminescence competitive binding immunoassay for phenylcyclidine (PCP) in urine; conditions: for Signal Counts: integrated for eight seconds, 0 ng/mL: 188329
# Protocol: Monoclonal anti-phenylcyclidine antibody was labeled with acridinium sulfonamide using EDAC coupling procedures known in the art. It was kept in the same buffer used for the anti-core conjugate of Example 3.
# 80 μL of IMx Tris buffer solution followed by 80 μL Celquat™ L-200 solutions were dispensed on the glass fiber matrices of the disposable reaction tray. Solutions were dispensed using two FMI-RH pumps and controlled via a triac board by an Intel 310 Development System (Intel Inc., Sunnyvale, Calif.). The tray was moved on a linear track using a timing belt and a stepper motor. The stepper motor was controlled by a board employing components known in the art. After 4.8 minutes, 50 μL of calibrator (sample) was pipetted into the shallow reaction wells of a disposable reaction tray, using an automated pipettor. 50 μL of acridinium labeled anti-PCP antibodies was dispensed into each incubation well. The mixture was incubated for 9.6 minutes in a heated tunnel at 32° C. with the disposable device moving into the tunnel by the timing belt in steps at the rate of 0.8 inches per minute, the reaction tray being stationary for 36 seconds after each step for a reaction step to take place. After 9.6 minutes incubation on the moving timing belt, 50 μL a solution containing PCP-PGA capture reagent at a concentration of 1.9 mg PGA/mL was dispensed into the incubation well through a tip centered on the well. The capture reagent solution was dispensed by an FMI-RH pump and controlled by the 310 Development system through a triac interface board. The reaction mixture was further incubated for 9.6 minutes. The quaternary ammonium polymer-treated glass fiber matrices were rinsed with 100 μL of the IMx buffer before reaction mixture transfer.
# As the disposable tray was positioned under the transfer device as described herein, the reaction mixture was transferred and washed from the shallow incubation well onto the pre-treated glass fiber matrix in the detection well. The disposable tray was moved on the timing belt to allow subsequent well pairs to be located under the transfer device and to affect transfer of the reaction mixture. The disposable device was then moved to a read position, where the chemiluminescence detection head of the present invention was lowered to mate with the surface feature on the first two wells on the disposable to create a light-tight seal. The retained and immobilized immune complex on the glass fiber matrix was triggered using 0.3% alkaline peroxide solution in 0.25M NaOH and the signal from each PMT/amplifier was controlled by a counter/timer board and each side was triggered with an independent pump. The photon counter signal was integrated for eight seconds.
structure (smiles),measurement,setting,value
"c1ccc(C2(N3CCCCC3)CCCCC2)cc1 [Phenylcyclidine, phenylcyclidine]",Net Polarization,"anti-PCP antibody; Table 4, 25 ng/mL",173 ΔmP
same,Net Polarization,"anti-PCP antibody; Table 4, 60 ng/mL",144 ΔmP
same,Net Polarization,"anti-PCP antibody; Table 4, 250 ng/mL",82 ΔmP
same,Net Polarization,"anti-PCP antibody; Table 5, 25 ng/mL",173
same,Net Polarization,"anti-PCP antibody; Table 5, 60 ng/mL",144
same,Net Polarization,"anti-PCP antibody; Table 5, 120 ng/mL",112
same,Net Polarization,"anti-PCP antibody; Table 5, 250 ng/mL",82
same,Net Polarization,"anti-PCP antibody; Table 5, 500 ng/mL",65
same,Chemiluminescence signal,[1]; 25 ng/mL phenylcyclidine in human urine,2162 counts/6 seconds
same,Chemiluminescence signal,[1]; 60 ng/mL phenylcyclidine in human urine,1440 counts/6 seconds
same,Chemiluminescence signal,[1]; 250 ng/mL phenylcyclidine in human urine,1016 counts/6 seconds
same,% Inhibition,[2]; 25 ng/mL PCP in human urine,73.3%
same,Signal Counts,[2]; 25 ng/mL PCP in human urine,50347 counts
same,% Inhibition,[2]; 60 ng/mL PCP in human urine,83.6%
same,Signal Counts,[2]; 60 ng/mL PCP in human urine,30839 counts
same,% Inhibition,[2]; 120 ng/mL PCP in human urine,87.3%
same,Signal Counts,[2]; 120 ng/mL PCP in human urine,23977 counts
same,% Inhibition,[2]; 250 ng/mL PCP in human urine,89.2%
same,Signal Counts,[2]; 250 ng/mL PCP in human urine,20379 counts
same,% Inhibition,[2]; 500 ng/mL PCP in human urine,89.5%
same,Signal Counts,[2]; 500 ng/mL PCP in human urine,19759 counts
